Experimental findings from ChEMBL document CHEMBL3525922, “Significance of reductive metabolism in human intestine and quantitative prediction of intestinal first-pass metabolism by cytosolic reductive enzymes” (Drug Metab Dispos, 2013) are described below.

Data set [1] in a line: Drug metabolism in human intestinal cytosol at 200 nM after 60 mins in presence of flufenamic acid. In kind it is ADME, Intestine. As to conditions: 1 h, 0.2 µM.
The nature of data set [2]: Drug metabolism in human intestinal cytosol at 200 nM after 60 mins in presence of ondansetron. In kind it is ADME, Intestine. As to conditions: 1 h, 0.2 µM.
Data set [3] in a line: Apparent permeability of the compound at 50 uM at pH 7.4 after 240 mins by PAMPA. Type of data set: physicochemical. (In general: In PAMPA a lipid-coated filter parts donor from acceptor wells.)
Data set [4] has as its target T1, carbonyl reductase (Carbonyl reductase [NADPH] 1) (Homo sapiens, UniProt P16152).
T1 sequence (P16152 whole entry): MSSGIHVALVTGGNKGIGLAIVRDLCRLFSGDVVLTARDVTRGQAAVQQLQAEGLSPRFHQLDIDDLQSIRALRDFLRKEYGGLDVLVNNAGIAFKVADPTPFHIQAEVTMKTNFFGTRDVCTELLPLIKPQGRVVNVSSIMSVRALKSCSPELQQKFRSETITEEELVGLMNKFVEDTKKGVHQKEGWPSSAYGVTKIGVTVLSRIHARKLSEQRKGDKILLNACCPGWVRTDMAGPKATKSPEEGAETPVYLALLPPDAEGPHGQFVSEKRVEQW
In words: Activity of carbonyl reductase in liver cytosol (unknown origin) assessed as enzyme-mediated drug metabolism. Type of data set: ADME, tissue-based.

Data set [5] concerns the target T1, carbonyl reductase (Carbonyl reductase [NADPH] 1). Description: Activity of recombinant carbonyl reductase (unknown origin). In kind it is ADME.
For data set [6], the system named is Liver cytosol. In words: Drug level in human liver cytosol treated with 10 uM mebendazole after 20.80 mins by HPLC-MS analysis. As to conditions: 0.346667 h. Type of data set: ADME, tissue-based.
The subject of data set [7] is Liver. Description: Drug level in human liver S9 fraction treated with 10 uM mebendazole after 19.80 to 20.76 mins by HPLC-MS analysis. Type of data set: ADME, subcellular.
A short description of data set [8]: Drug level in human intestinal cytosol treated with 10 uM mebendazole after 20.74 mins by HPLC-MS analysis. In kind it is ADME, Intestine. As to conditions: 0.345667 h.
Data set [9] is described as follows: Drug level in human intestinal S9 fraction treated with 10 uM mebendazole 20.69 mins by HPLC-MS analysis. In kind it is ADME, Intestine. As to conditions: s9, 0.344833 h.
Data set [10] can be described thus: Unbound intrinsic clearance in human intestinal microsomes at 50 to 1000 nM after 30 to 60 mins by HPLC-MS/MS analysis. As to conditions: 1 µM. Type of data set: ADME, Intestine, Microsome.
Data set [11] concerns Liver microsome. Description: Unbound intrinsic clearance in human liver microsomes at 50 to 1000 nM after 30 to 60 mins by HPLC-MS/MS analysis. In kind it is ADME. As to conditions: 1 µM. For orientation: Liver microsomes are a subcellular fraction often used to study metabolism.
Data set [12] can be described thus: Unbound intrinsic clearance in human intestinal cytosol at 50 to 1000 nM after 30 to 60 mins by HPLC-MS/MS analysis. As to conditions: 1 µM. In kind it is ADME, Intestine.
Data set [13] has as its system Liver cytosol. Description: Unbound intrinsic clearance in human liver cytosol at 50 to 1000 nM after 30 to 60 mins by HPLC-MS/MS analysis. Type of data set: ADME, tissue-based. As to conditions: 1 µM.
The nature of data set [14]: Unbound intrinsic clearance in human intestinal S9 fraction at 50 to 1000 nM after 30 to 60 mins by HPLC-MS/MS analysis. Type of data set: ADME, Intestine. As to conditions: s9, 1 µM.
For data set [15], the system named is Liver. Description: Unbound intrinsic clearance in human liver S9 fraction at 50 to 1000 nM after 30 to 60 mins by HPLC-MS/MS analysis. In kind it is ADME, subcellular. As to conditions: s9, 1 µM.
A short description of data set [16]: Metabolic stability in human intestinal S9 fraction assessed as compound remaining at 50 to 1000 nM after 60 mins by HPLC-MS/MS analysis. Type of data set: ADME, Intestine. As to conditions: read-out: Stability.
A short description of data set [17]: Intrinsic clearance in human intestinal S9 fraction at 50 to 1000 nM after 60 mins by HPLC-MS/MS analysis. In kind it is ADME, Intestine. As to conditions: s9, 1 h, 1 µM.
Data set [18] in a line: Unbound intrinsic clearance in human intestinal S9 fraction at 50 to 1000 nM after 30 to 60 mins by HPLC-MS/MS analysis in presence of NADH. Type of data set: ADME, Intestine. As to conditions: s9, 1 µM.
A short description of data set [19]: Unbound intrinsic clearance in human intestinal S9 fraction at 50 to 1000 nM after 30 to 60 mins by HPLC-MS/MS analysis in presence of NADPH. In kind it is ADME, Intestine. As to conditions: s9, 1 µM.
Data set [20] in a line: Metabolic stability in human intestinal cytosol at 200 nM after 60 mins in presence of menadione. Type of data set: ADME, Intestine. As to conditions: 1 h, 0.2 µM.
A short description of data set [21]: Metabolic stability in human intestinal microsomes assessed as compound remaining at 50 to 1000 nM after 60 mins by HPLC-MS/MS analysis. Type of data set: ADME, Intestine, Microsome. As to conditions: read-out: Stability.
Data set [22] in a line: Intrinsic clearance in human intestinal microsomes at 50 to 1000 nM after 60 mins by HPLC-MS/MS analysis. Type of data set: ADME, Intestine, Microsome. As to conditions: 1 h, 1 µM.
Data set [23] is described as follows: Metabolic stability in human intestinal S9 fraction assessed as compound remaining at 50 to 1000 nM after 60 mins by HPLC-MS/MS analysis in presence of NADH. Details: dose or concentration left out as unconfirmed.
A short description of data set [24]: Metabolic stability in human intestinal cytosol at 200 nM after 30 mins in presence of menadione. Type of data set: ADME, Intestine. As to conditions: 0.5 h, 0.2 µM.
The nature of data set [25]: Drug metabolism in human intestinal cytosol at 200 nM after 30 mins in presence of flufenamic acid. Type of data set: ADME, Intestine. As to conditions: 0.5 h, 0.2 µM.
Data set [26] can be described thus: Drug metabolism in human intestinal cytosol at 200 nM after 30 mins in presence of ondansetron. Type of data set: ADME, Intestine. As to conditions: 0.5 h, 0.2 µM.
For data set [27], the system named is Liver microsome. In words: Drug metabolism in human liver microsomes assessed as hydrolyzed metabolite formation at 10 uM after 19.83 mins by HPLC-MS analysis. Type of data set: ADME. As to conditions: 0.3305 h.
Data set [28] has as its system Liver cytosol. In words: Drug metabolism in human liver cytosol assessed as reductive metabolite formation at 10 uM after 20.80 mins by HPLC-MS analysis. Type of data set: ADME, tissue-based. As to conditions: 0.346667 h.
Data set [29] is described as follows: Drug metabolism in human liver S9 fraction assessed as hydrolyzed metabolite formation at 10 uM after 19.80 mins by HPLC-MS analysis. Type of data set: ADME, subcellular. As to conditions: s9, 0.33 h.
The nature of data set [30]: Drug metabolism in human liver S9 fraction assessed as reductive metabolite formation at 10 uM after 20.76 mins by HPLC-MS analysis. Type of data set: ADME, subcellular. As to conditions: s9, 0.346 h.
The nature of data set [31]: Drug metabolism in human intestinal cytosol assessed as reductive metabolite formation at 10 uM after 20.74 mins by HPLC-MS analysis. In kind it is ADME, Intestine. As to conditions: 0.345667 h.
A short description of data set [32]: Drug metabolism in human intestinal S9 fraction assessed as reductive metabolite formation at 10 uM after 20.69 mins by HPLC-MS analysis. Type of data set: ADME, Intestine. As to conditions: s9, 0.344833 h.
The conditions of data set [33]: human, s9, 1 h, 1 µM.

Structures are written as SMILES.

The term Papp denotes a coefficient for how fast a substance crosses the barrier. One may read the Km as the substrate concentration at which the rate is half of its maximum. Turning to `O=C(CCCN1CCC(O)(c2ccc(Cl)cc2)CC1)c1ccc(F)cc1` [HALOPERIDOL], the Drug metabolism entry in [1] and in [2] was “metabolite_detected” in each case. Moreover, the apparent permeability (Papp) at 4 h, 50 µM in data set [3] amounted to 33.7 ×10⁻⁶ cm/s. Besides, the Km in data set [4] came out at 250 µM; in data set [5], 1200 µM.

With `COC(=O)Nc1nc2ccc(C(O)c3ccccc3)cc2[nH]1` (stereo unspecified), the Drug metabolism entry (with Liver cytosol [6]; in the data set on Liver [7]; in [8]; in data set [9]) was “metabolite_detected” throughout.

For `O=C1Cc2cc(CCN3CCN(c4nsc5ccccc45)CC3)c(Cl)cc2N1` [ZIPRASIDONE], the CL free in [10] amounted to 29 µL/min/mg; in the data set with Liver microsome [11] it was 118 µL/min/mg; in data set [12] it was 15 µL/min/mg; in the data set on Liver cytosol [13] it was 23 µL/min/mg; in [14] it was 28 µL/min/mg; with Liver [15], 89 µL/min/mg. The CL free in data set [18] came to 15 µL/min/mg; in data set [19] it was 28 µL/min/mg. Moreover, the remaining at 1 h, up to 1 µM in [16] is greater than 90%. The compound also came in with a CL in data set [17] of less than 1.8 µL/min/mg. Moreover, the Stability result in data set [20] was “Stable”. Moreover, the Drug metabolism entry in data set [1] and in data set [2] was “metabolite_detected” in each case. In addition, the Papp at 4 h, 50 µM in data set [3] was 67.2 ×10⁻⁶ cm/s.

As to `Nc1nc2ccc(C(=O)c3ccccc3)cc2[nH]1`, in the data set with Liver [7], the Drug metabolism result is “metabolite_detected”.

Turning to `COC(=O)Nc1nc2ccc(C(=O)c3ccccc3)cc2[nH]1` [MEBENDAZOLE], the CL free with Liver microsome [11] came out at 9 µL/min/mg. Also, the remaining at 1 h, up to 1 µM in data set [21] and in data set [16] was greater than 90% each time. Further, the values for the CL in [22], in data set [17] and in data set [33] were less than 8.8 µL/min/mg, less than 1.8 µL/min/mg and less than 1.8 µL/min/mg, respectively. Besides, in data set [23], the remaining at 1 h is greater than 90%. For the same compound, the Stability entry in data set [24] is on record as “Stable”. For the same compound, the Drug metabolism entry (in data set [25]; in data set [26]; in the data set on Liver microsome [27]; with Liver cytosol [28]; in [29]; in [30]) was “metabolite_detected” in each case. Besides, the Drug metabolism result in data set [31] and in [32] was “metabolite_detected” each time. In data set [3], the Papp at 4 h, 50 µM worked out at 48.5 ×10⁻⁶ cm/s.
